{"source": "patent US8853172B2", "about": "“Anti-plant-virus agent” (National University Corporation Hokkaido University, priority 2009, dated 2014)", "assay_type_in_all_cases": "in vivo", "key": {"Turnip mosaic virus [1]": {"system": "Turnip mosaic virus", "experiment": "Experiment III: therapeutic test, spraying after inoculation of Arabidopsis thaliana with Turnip mosaic virus (inoculation solution C)", "conditions": "Arabidopsis thaliana (Columbia), ten columns inoculated, 20 mM sprayed on days 1, 4, 7 and 10 after inoculation, observed on the 16th day", "protocol": "A nonionic surfactant (polyoxyethylene sorbitan monolaurate) and a spreading agent (Approach BI: manufactured by Kao Corporation) were dissolved in N,N-dimethylformamide. This solution was added to water to obtain an aqueous solution comprising 0.05% of a nonionic surfactant, 0.1% of a spreading agent, and 1% of N,N-dimethylformamide.\n(§1) Two expanded leaves per one column of Arabidopsis thaliana (Columbia) were inoculated with the virus via the aforementioned virus inoculation solution C by the carborundum method.\nOn the 1st day, the 4th day, the 7th day and the 10th day after the date of the virus inoculation, the aforementioned aqueous solution was sprayed thereon.\nOn the 16th day after the date of the virus inoculation, the presence or absence of disease symptoms such as yellow mosaic of new leaves, leaf curling, plant stunting was observed.\n(§2) Ascorbic acid 6-palmitate, a nonionic surfactant (polyoxyethylene sorbitan monolaurate) and a spreading agent (Approach BI: manufactured by Kao Corporation) were dissolved in N,N-dimethylformamide. This solution was added to water to obtain an aqueous solution of the anti-plant virus agent comprising 20 mM ascorbic acid 6-palmitate, 0.05% of a nonionic surfactant, 0.1% of a spreading agent, and 1% of N,N-dimethylformamide.\nExcept that the aqueous solution of the anti-plant virus agent was sprayed onto Arabidopsis thaliana instead of the aforementioned aqueous solution, in the same manner as Comparative Example 6, Turnip mosaic virus was inoculated onto Arabidopsis thaliana, and then the onset of the symptoms was examined."}, "Turnip mosaic virus [2]": {"system": "Turnip mosaic virus", "experiment": "Experiment II: preventive test, spraying before inoculation of Arabidopsis thaliana with Turnip mosaic virus (inoculation solution C)", "conditions": "for columns that showed symptoms / columns that were healthy: Arabidopsis thaliana (Columbia), ten columns inoculated, 20 mM sprayed on the 3rd and 1st day before inoculation, observed on the 16th day", "protocol": "The frozen tobacco leaves infected with Turnip mosaic virus were triturated in 0.1M phosphate-buffer solution at a 10-fold amount (containing 10 mM DIECA). Then, this was diluted 50 times with the same buffer solution. This was defined as virus inoculation solution C.\nas §1\nOn the 3rd day and the 1st day prior to the date of the virus inoculation, an aqueous solution of 0.1% a spreading agent (Approach BI: manufactured by Kao Corporation) was sprayed thereon.\nOn the 16th day after the date of the virus inoculation, the presence or absence of disease symptoms such as yellow mosaic of new leaves, leaf curling, and plant stunting was observed.\nEach was dissolved in water so as to be 20 mM ascorbic acid and 0.1% of a spreading agent (Approach BI: manufactured by Kao Corporation), thereby obtaining an aqueous solution of ascorbic acid. Except that the aqueous solution of ascorbic acid was sprayed onto Arabidopsis thaliana instead of the aqueous solution of the spreading agent, in the same manner as Comparative Example 3, Turnip mosaic virus was inoculated onto Arabidopsis thaliana, and then the onset of symptoms was examined."}, "Turnip mosaic virus [3]": {"system": "Turnip mosaic virus", "experiment": "Experiment I: spraying before and after inoculation of Arabidopsis thaliana with Turnip mosaic virus (inoculation solution A), onset of symptoms", "conditions": "for columns that showed symptoms / columns that were healthy: Arabidopsis thaliana (Columbia), seven columns inoculated, 20 mM sprayed on days 3 and 1 before and 1, 3, 5, 8, 10 after inoculation, observed on the 14th day", "protocol": "(§3) Each of the frozen tobacco leaves infected with Turnip mosaic virus and Cucumber mosaic virus (Y strain) was triturated in 0.1M phosphate-buffer solution at a 10-fold amount (containing 10 mM diethyldithiocarbamic acid (DIECA)). These were defined as virus inoculation solutions A and B. These virus inoculation solutions A and B are solutions causing a 100% incidence.\n(§4) Three expanded leaves per one column of Arabidopsis thaliana (Columbia) were inoculated with each virus via the aforementioned virus inoculation solutions A and B by the carborundum method.\n(§5) On the 3rd day and the 1st day prior to the date of the virus inoculation, and on the 1st day, the 3rd day, the 5th day, the 8th day and the 10th days after the date of the virus inoculation, an aqueous solution of 0.1% of a spreading agent (Approach BI: manufactured by Kao Corporation) was sprayed thereon.\n(§6) On the 14th day after the virus inoculation, the presence or absence of disease symptoms such as yellow mosaic of new leaves, leaf curling, and plant stunting was observed. […] It can be seen that the above virus inoculation solutions A and B are strong solutions in view of the fact that the inoculation with the solutions reliably causes the onset of symptoms.\n(§7) Each was dissolved in water so as to be 20 mM ascorbic acid and 0.1% of a spreading agent (Approach BI: manufactured by Kao Corporation), thereby obtaining an aqueous solution of ascorbic acid. Except that the aqueous solution of ascorbic acid was sprayed onto Arabidopsis thaliana instead of the aqueous solution of the spreading agent, in the same manner as Comparative Example 1, Turnip mosaic virus and Cucumber mosaic virus (Y strain) were inoculated onto Arabidopsis thaliana, and then the onset of symptoms was examined.\nas §2, with “of N,N-dimethylformamide. Except that the aqueous solution of the anti-plant virus agent was sprayed thereon instead of the aqueous solution of ascorbic acid, in the same manner as Comparative Example 2, Turnip mosaic virus and Cucumber mosaic virus (Y strain) were inoculated onto Arabidopsis thaliana, and then the onset of symptoms was examined.” for “of N,N-dimethylformamide.”\nEach was added to water so as to be 20 mM ascorbic acid 2-phosphate ester 3-sodium and 0.1% of a spreading agent (Approach BI: manufactured by Kao Corporation), thereby obtaining an aqueous solution of the anti-plant virus agent. Except that the aqueous solution of the anti-plant virus agent was sprayed thereon instead of the aqueous solution of ascorbic acid, in the same manner as Comparative Example 2, Turnip mosaic virus was inoculated onto Arabidopsis thaliana, and then the onset of symptoms was examined."}, "[4]": {"system": "Cucumber mosaic virus (Y strain)", "experiment": "Experiment I: spraying before and after inoculation of Arabidopsis thaliana with Cucumber mosaic virus (Y strain) (inoculation solution B), onset of symptoms", "conditions": "Arabidopsis thaliana (Columbia), seven columns inoculated, 20 mM sprayed on days 3 and 1 before and 1, 3, 5, 8, 10 after inoculation, observed on the 14th day", "protocol": "as §3, §4, §5, §6, §7\nAscorbic acid 6-palmitate, a nonionic surfactant (polyoxyethylene sorbitan monolaurate) and a spreading agent (Approach BI: manufactured by Kao Corporation) were dissolved in N,N-dimethylformamide. […]"}, "[5]": {"system": "Tomato aspermy virus (V strain)", "experiment": "Experiment IV: spraying of tomato (cultivar Beiju) inoculated with Tomato aspermy virus (V strain)", "conditions": "four columns inoculated, 2 mM sprayed every day for two weeks from inoculation, observed on the 30th day", "protocol": "The frozen tobacco (Nicotiana benthamiana) infected with Tomato aspermy virus (V strain) was triturated in 0.1M phosphate-buffer solution at a 10-fold amount (containing 10 mM DIECA), and was filtered through a double gauze and the filtrate was defined as virus inoculation solution D. Onto fully expanded leaves of the seedling stage of tomato (cultivar: Beiju) after a period of two weeks from seeding, the virus inoculation solution D was inoculated by physical application via the carborundum method.\nAfter the virus inoculation, as a result of examination of disease symptoms over time, mosaic or leaf curling could be recognized after the 5th day, and lethal necrosis symptoms were shown after the period of two weeks, and all of the five columns inoculated with Tomato aspermy virus (V strain) withered.\n200 mM of ascorbic acid 6-palmitate was dissolved in N,N-dimethylformamide. This solution was diluted 100 times with distilled water to obtain an aqueous solution of the anti-plant virus agent comprising 2 mM ascorbic acid 6-palmitate and 1% of N,N-dimethylformamide. In the same manner as Comparative Example 7, the tomato was inoculated with tomato aspermy virus (V strain). During the two weeks from the date of virus inoculation, the aforementioned aqueous solution was sprayed thereon every day, and disease symptoms were examined over time. […]"}}, "data": [{"smiles": "CCCCCCCCCCCCCCCC(=O)OC[C@H](O)[C@H]1OC(=O)C(OC(=O)CCCCCCCCCCCCCCC)=C1O", "note": "[ascorbic acid 2,6-dipalmitate]", "values": [{"measurement": "columns that showed symptoms", "setting": "Turnip mosaic virus [1]", "value": "one"}, {"measurement": "columns that were healthy", "setting": "Turnip mosaic virus [1]", "value": "nine"}]}, {"smiles": "O=C1O[C@H]([C@@H](O)CO)C(O)=C1O[C@H]1O[C@H](CO)[C@@H](O)[C@H](O)[C@H]1O", "note": "[ascorbic acid 2-glucoside]", "values": [{"measurement": "columns that showed symptoms", "setting": "Turnip mosaic virus [2]", "value": "one"}, {"measurement": "columns that were healthy", "setting": "Turnip mosaic virus [2]", "value": "nine"}]}, {"smiles": "O=C1O[C@H]([C@@H](O)CO)C([O-])=C1OP(=O)([O-])[O-].[Na+].[Na+].[Na+]", "note": "[ascorbic acid 2-phosphate ester 3-sodium]", "values": [{"measurement": "columns that showed symptoms", "setting": "Turnip mosaic virus [3]", "value": "five"}, {"measurement": "columns that were healthy", "setting": "Turnip mosaic virus [3]", "value": "two"}, {"measurement": "columns that were healthy", "setting": "Turnip mosaic virus [2]", "value": "ten"}]}, {"smiles": "CCCCCCCCCCCCCCCC(=O)OC[C@H](O)[C@H]1OC(=O)C(O)=C1O", "note": "[ascorbic acid 6-palmitate]", "values": [{"measurement": "columns that showed symptoms", "setting": "Turnip mosaic virus [3]", "value": "five"}, {"measurement": "columns that were healthy", "setting": "Turnip mosaic virus [3]", "value": "two"}, {"measurement": "columns that showed symptoms", "setting": "[4]", "value": "five"}, {"measurement": "columns that were healthy", "setting": "[4]", "value": "two"}, {"measurement": "columns that showed symptoms", "setting": "Turnip mosaic virus [1]", "value": "one"}, {"measurement": "columns that were healthy", "setting": "Turnip mosaic virus [1]", "value": "nine"}, {"measurement": "columns that were healthy", "setting": "[5]", "value": "two"}, {"measurement": "columns that withered", "setting": "[5]", "value": "two"}]}, {"smiles": "CCCCCCCCCCCCCCCCCC(=O)OC[C@H](O)[C@H]1OC(=O)C(O)=C1O", "note": "[ascorbic acid 6-stearate]", "values": [{"measurement": "columns that showed symptoms", "setting": "Turnip mosaic virus [1]", "value": "one"}, {"measurement": "columns that were healthy", "setting": "Turnip mosaic virus [1]", "value": "nine"}]}, {"smiles": "O=C1O[C@H]([C@@H](O)CO)C(O)=C1O", "note": "[ascorbic acid, reference compound]", "values": [{"measurement": "columns that showed symptoms", "setting": "Turnip mosaic virus [3]", "value": "seven"}, {"measurement": "anti-plant viral activity (conclusion in words)", "setting": "Turnip mosaic virus [3]; Experiment I, 20 mM spray", "value": "does not have any anti-plant viral activity"}, {"measurement": "columns that showed symptoms", "setting": "[4]", "value": "seven"}, {"measurement": "columns that showed symptoms", "setting": "Turnip mosaic virus [2]", "value": "two"}, {"measurement": "columns that were healthy", "setting": "Turnip mosaic virus [2]", "value": "eight"}, {"measurement": "anti-plant viral activity / preventive effect (conclusion in words)", "setting": "Turnip mosaic virus [2]; Experiment II, 20 mM sprayed before inoculation", "value": "do not have any anti-plant viral activity"}]}, {"smiles": "CCCCCCCCC(CCCCCC)C(=O)OCC(OC(=O)C(CCCCCC)CCCCCCCC)C1OC(=O)C(OC(=O)C(CCCCCC)CCCCCCCC)=C1OC(=O)C(CCCCCC)CCCCCCCC", "note": "(stereo not drawn) [ascorbyl 2,3,5,6-tetrahexyldecanoate]", "values": [{"measurement": "columns that showed symptoms", "setting": "Turnip mosaic virus [1]", "value": "one"}, {"measurement": "columns that were healthy", "setting": "Turnip mosaic virus [1]", "value": "nine"}]}, {"smiles": "O=C1O[C@H]([C@@H](O)CO)C([O-])=C1O.[Na+]", "note": "[sodium ascorbate]", "values": [{"measurement": "columns that showed symptoms", "setting": "Turnip mosaic virus [2]", "value": "three"}, {"measurement": "columns that were healthy", "setting": "Turnip mosaic virus [2]", "value": "seven"}]}]}
